{"source": "patent US20080004313A1", "about": "“Preparation of crystalline polymorphs of rimonabant hydrochloride” (priority 2006, published 2008)", "assay": "Stability study of bulk material (stability-indicating HPLC, storage under controlled temperature and humidity)", "type": "physicochemical", "method": "The stability of crystalline polymorphic forms or solvates of rimonabant hydrochloride of the present invention may be determined using conventional quantitative analytical methods. For example the stability of crystalline polymorph forms or solvates of rimonabant hydrochloride may be determined by using accelerated stability conditions, wherein the test compounds are stored under controlled conditions of temperature and humidity over known periods of time, e.g., 40° C./75% relative humidity. Quantitative analysis of the test compounds by high performance liquid chromatography method or by X-ray powder diffraction pattern, DSC, IR or TGA, against appropriate reference standards before, during and after the storage period allows the stability of the test compound to be determined.\nThe stability of polymorph forms or solvate forms (Form A, B, C, D and E) of crystalline rimonabant hydrochloride bulk material and tablets was assessed by storing samples for up to 6 or 12 weeks at 25° C./60% RH or 40° C./75% RH. Changes were monitored using a stability-indicating HPLC method. Results were calculated by normalized peak area (npa). Degradants were identified by comparison of their relative retention times against impurity standards.", "data": [{"molecule": "Cc1c(C(=O)NN2CCCCC2)nn(-c2ccc(Cl)cc2Cl)c1-c1ccc(Cl)cc1.Cl", "note": "[Form D, N-piperidino-5-(4-chlorophenyl)-1-(2,4-dichlorophenyl)-4-methyl-3-pyrazolecarboxamide hydrochloride]", "values": [{"measurement": "stability (time)", "setting": "bulk material, elevated temperatures and humidity", "result": 3, "unit": "months"}, {"measurement": "physical and chemical stability", "setting": "solid state", "result": "physically and chemically stable"}]}]}
